Laboratory results published in patent US9029092B2, “Solution phase homogeneous assays” (Beckman Coulter, Inc., priority 2009, dated 2015).
Read-outs that look alike come from different tables or passages of the source.

How the values were obtained:
PSA = test: Screening SSIA by homogeneous PSA immunoassay (anti-PSA-AK1 + anti-PSA-HRP); format: biochemical, human
Procedure: This example presents one method used for testing of candidate compounds for functionality as SSIA in assays of the present disclosure. Testing was conducted in a model screening immunoassay of the protein PSA. Tests were run using a 96-well microtiter plate format. A solution containing 30 μL of mouse anti-PSA-AK1 (66 ng), 30 μL of mouse anti-PSA-HRP conjugate (7.8 ng), 36 μL of human female serum, and 24 μL of PSA calibrator were pipetted into each well. The plate was incubated at 37° C. for 10 minutes. A 5 μL aliquot of the test compound (various concentrations) was added to each well. Chemiluminescence was triggered by the addition of 100 μL of a solution of a trigger solution whose composition is listed below. The chemiluminescent flash was integrated for 5 seconds after the addition of the trigger solution using a Luminoskan Asent® plate luminometer, (Thermo Fischer Scientific, Inc., Waltham, Mass.).
It is desirable that the improvement factor be at least 2 (S5/S0≧ about 20-30) and more desirable that improvement factor be at least 5 (S5/S0≧ about 50), yet more desirable that S5/S0 be ≧100 in the present screen.

biotinylated HRP = test: Model system for selection of SSIA (AK1/streptavidin BSA microparticles + biotinylated HRP); format: biochemical, horseradish; settings: SSIA 100 μM final
Procedure: The model system uses a microparticle conjugated to BSA (bovine serum albumin) labeled with a […] and acridan ketenedithioacetal chemiluminescent label (AK1) as the chemiluminescent-labeled sbp, and biotinylated HRP as the activator-labeled specific binding pair. In the model system, varying amounts of Btn-HRP is added to the chemiluminescent-labeled specific binding pair at 0, 1, 10, 100 and 250 ng/mL. Additional unlabeled HRP is added to reach a total HRP of concentration of 500 ng/mL in each reaction mixture. The unlabeled HRP in combination with the activator-labeled sbp was provided to the chemiluminescent-labeled sbp microparticles to emulate sample. A compound for assessment as an SSIA was also added. This reaction mixture of the model system is then triggered by addition of trigger solution in a manner of assays of the present disclosure.
To prepare the chemiluminescent-labeled sbp on microparticles, Bovine Serum Albumin (BSA) was biotinylated with 4× molar excess of biotin-LC-sulfoNHS (Pierce Biotechnology Inc., Rockford, Ill., USA). Unbound reactants were removed via desalting or dialysis. The biotin-BSA was then reacted with a 5× molar excess of an NHS ester of acridan ketenedithioacetal AK1 in 20 mM sodium phosphate pH 7.2: DMSO 75:25, v/v) followed by desalting in the same buffer. The dual labeled (biotin and AK1) BSA was then coupled with tosyl activated M280 microparticles (Invitrogen Corporation, Carlsbad, Calif., USA) in a 0.1M borate buffer pH 9.5 at a concentration of about 20 μg of labeled BSA per mg of microparticles for 16-24 h at 40° C. After coupling the microparticles were stripped for 1 h at 40° C. with 0.2 M TRIS base, 2% SDS, pH˜11. The stripping process was repeated one additional time. Microparticles were then suspended in a 0.1% BSA/TRIS buffered saline (BSA/TBS) buffer and streptavidin (SA) was added at approximately 15 μg SA per mg microparticles. Streptavidin was mixed with the microparticles for 45-50 min at room temperature. The microparticles were then washed three times and suspended in the same BSA/TBS.
HRP, (Roche Diagnostics, Indianapolis, Ind., USA) was biotinylated with 4× molar excess of biotin-LC-sulfoNHS (Pierce Biotechnology Inc., Rockford, Ill., USA). Alternatively, 25× molar excess of biotin-PEO4-NHS may be used. Unbound reactants were removed via desalting or dialysis.
Each SSIA compound for assessment was solubilized in Buffer II at a concentration at least 10× of the working strength concentration.
25 μl of 1 mg/ml of dual-labeled (biotin and AK1) BSA M280 particles were mixed with 45 μl of working concentration SSIA in Buffer II. The assay volume brought to 85 μl by adding 15 μl of Buffer II. 15 μl of sample containing Btn-HRP:HRP at different ratios (The amount of biotinylated-HRP varied from 0, 1, 10, 100 and 250 ng/mL) was added. The reaction mixture was incubated for 30 min at 37° C., then 100 μL of trigger solution was added and the light intensity recorded. Total volume of reaction mixture, including trigger solution was 200 μL with a final concentration of 100 μM of SSIA.
The screening tests were performed using a modified DxI® Immunoassay System (Beckman Coulter, Inc. Brea, Calif.) as described above.

[1] = test compound final conc. […] ([…]), S5 = 129 ng PSA/mL vs zero PSA
[2] = test compound final conc. 0.244 mM (244 uM)

| Compound | S5/S0 (PSA; [1]) | other results |
| --- | --- | --- |
| Cc1cc(CO)c(O)c(CO)c1 | 23 | – |
| COc1cc(C(C)(C)C)c(O)c(C(C)(C)C)c1 | 19 | – |
| Cc1ccc(O)c(O)c1 | 142 | – |
| O=C(O)c1ccc(O)c(O)c1 | 178 | – |
| Oc1cccc(O)c1O | 69 | – |
| O=C(O)c1cc(O)c(O)c(O)c1 | 135 | – |
| COc1ccccc1O | 13 | – |
| Oc1ccc([C@@H]2Oc3cc(O)c(O)cc3C[C@@H]2O)cc1O | 323 | – |
| O=c1cc(O)c2ccccc2o1 | 17 | – |
| O=c1ccc2cc(O)c(O)cc2o1 | 105 | – |
| O=c1c(O)c(-c2ccccc2)oc2ccccc12 | 13 | – |
| Nc1ncccc1O | 32 | – |
| COc1ccccc1N | 7 | – |
| Cn1ccnc1S | – | S5/S0 (PSA; test compound final conc. 36.7 mM): 102 |
| Nc1ncc[nH]1 | – | S5/S0 (PSA; test compound final conc. 24.4 mM): 14 |
| COC1=C(O)C(=O)O[C@@H]1[C@@H](O)CO | 16 | – |
| O=C1O[C@H]([C@@H](O)CO)C(=O)C1=O | 26 | – |
| O=c1c(O)c(-c2ccccc2)oc2cc(O)ccc12 | 14 | – |
| O=c1c(O)c(-c2ccccc2)oc2ccc(O)cc12 | 9 | – |
| Nc1c(O)cc(S(=O)(=O)O)c2ccccc12 | 65 | – |
| Nc1cc(Cl)ccc1O | – | S5/S0 (PSA; [2]): 205 |

| Compound | S5/S0 (PSA; [1]) | other results |
| --- | --- | --- |
| O=C(O)c1cc(O)c2ccccc2n1 | 6 | – |
| c1ccc2c(c1)Cc1ccccc1O2 | 4 | – |
| O=c1c2ccccc2[nH]c2ccccc12 | 14 | – |
| O=S(=O)([O-])CCCN1c2ccccc2Sc2ccccc21.[Na+] | – | S5/S0 (PSA; [2]): 50 |
| Nc1ccccc1B(O)O | 108 | – |
| Nc1cccc(Cl)c1O | – | S5/S0 (PSA; [2]): 300 |
| Oc1cccnc1O | 41 | – |
| O=C(O)/C(O)=C(/O)C(=O)O | 30 | – |
| O=C(O)c1cccc(O)c1O | 22 | – |
| c1ccc2c(c1)Cc1ccccc1S2 | 9 | – |
| O=C(O)C1c2ccccc2Oc2ccccc21 | 7 | – |
| O=C(c1ccccc1)C1c2ccccc2Nc2ccccc21 | 9 | – |
| O=S(=O)([O-])CCCOCCCN1c2ccccc2Cc2ccccc21.[Na+] | – | S5/S0 (PSA; [2]): 6 |
| Nc1c(O)ccc2ccccc12 | 63 | – |
| O=C(O)/C=C/c1ccc(O)c(O)c1 | 116 | – |
| CC1(C)OC(=O)C(O)=C1O | 467 | – |
| CC1=C(O)C(=O)C(C)O1 (centres unmarked) | – | S5/S0 (PSA; test compound final conc. 1.25 mM): 237 |
| Nc1ccccc1S | 234 | – |
| Nc1cc2ccccc2cc1O | – | S5/S0 (PSA; [2]): 67 |
| Nc1ccc2ccccc2c1O | – | S5/S0 (PSA; [2]): 109 |
| Oc1ccc(O)c(Br)c1 | 570 | – |

| Compound | S5/S0 (PSA; [1]) | other results |
| --- | --- | --- |
| Nc1cc(C[C@H](N)C(=O)O)ccc1O | – | S5/S0 (PSA; [2]): 448 |
| C[C@H]1OC(=O)C(O)=C1O | 423 | – |
| O=C1O[C@H]([C@@H](O)CO)C([O-])=C1O.[Na+] | 9.2 | – |
| O=C1O[C@H]([C@H](O)CO)C(O)=C1O | 10.3 | – |
| O[C@@H](CS)[C@@H](O)CS [DTT] | – | S5/S0 (PSA; test compound final conc. 72 uM): 20 |
| OCCO [Ethylene glycol] | – | S5/S0 (PSA): 14 |
| N[C@@H](CCC(=O)N[C@@H](CS)C(=O)NCC(=O)O)C(=O)O [Glutathione] | 77 | light intensity, BTN-HRP0 (biotinylated HRP; Btn-HRP 0 ng/mL, total HRP 500 ng/mL): 26,977; S1/S0 (biotinylated HRP; Btn-HRP 1 ng/mL vs 0): 2.1; light intensity, BTN-HRP1 (biotinylated HRP; Btn-HRP 1 ng/mL, total HRP 500 ng/mL): 55,719; S2/S0 (biotinylated HRP; Btn-HRP 10 ng/mL vs 0): 92; light intensity, BTN-HRP10 (biotinylated HRP; Btn-HRP 10 ng/mL, total HRP 500 ng/mL): 2,480,764; S3/S0 (biotinylated HRP; Btn-HRP 100 ng/mL vs 0): 323.7; light intensity, BTN-HRP100 (biotinylated HRP; Btn-HRP 100 ng/mL, total HRP 500 ng/mL): 8,733,068; S4/S0 (biotinylated HRP; Btn-HRP 250 ng/mL vs 0): 369.4; light intensity, BTN-HRP250 (biotinylated HRP; Btn-HRP 250 ng/mL, total HRP 500 ng/mL): 9,965,235; effectiveness as SSIA in the model system (biotinylated HRP): insuffient effectiveness |
| N[C@@H](CS)C(=O)O [L-Cysteine] | 22 | – |
| NN [NH2NH2] | – | S5/S0 (PSA; [2]): 15 |
| O=S([O-])[O-].[Na+].[Na+] [Na2SO3] | – | S5/S0 (PSA; test compound final conc. 15 uM): 59 |
| [N-]=[N+]=[N-].[Na+] [NaN3] | – | S5/S0 (PSA; test compound final conc. 34 uM): 19 |
| Cc1cc(-c2cc(C)c(N)c(C)c2)cc(C)c1N [TMB] | – | S5/S0 (PSA; test compound final conc. 0.061 mM (61 uM)): 20 |
| O=C1O[C@H]([C@@H](O)CO)C([O-])=C1O.[Na+] [ascorbate sodium salt (ascorbate anion), ascorbate sodium salt] | 495 | – |
| c1ccc2c(c1)Nc1ccccc1O2 [drawing 87] | 605 | – |
| O=C1O[C@H]([C@@H](O)CO)C(O)=C1O [drawing 89] | 423 | – |
| Nc1ccccc1O [drawing 97] | 649 | – |
| Oc1ccc(Cl)cc1O [drawing 108] | – | S5/S0 (PSA; [2]): 409 |
| Nc1ccc(C(=O)O)cc1O [drawing 110] | 153 | – |
| O=C1O[C@H]([C@@H](O)CO)C(O)=C1O [drawing 128] | 10.3 | – |
